Reference: patent publication US10336790B2 (priority 2014, dated 2019)
Ends that are not written are not given here.

Columns and labels:
[1] = tested on: lung epithelial A549 cell line; assay: Peptide cytotoxicity, Trypan Blue exclusion assay; assay type: cell-based, human
Description: (§1) Cytotoxicity studies were performed using three mammalian cell lines which included mouse macrophage J774.16 cell line, human lung epithelial A549 cell line, and sheep red blood cells (sRBCs) in Trypticase soy agar (TSA). Mouse macrophage J774.16 cell line (maintained in antibiotic-free Dulbecco's modified Eagle's medium containing 20% fetal bovine serum, 5% NCTC 109, 1% nonessential amino acids and 1% glutamine) or human lung epithelial A549 cell line (maintained in antibiotic-free Ham's F12 medium supplemented with 10% fetal bovine serum) was seeded at a density of approximately 1×10^5 cells per ml in Lab-tek Permanox eight-chamber microscopy slides (Nunc, Inc., Naperville, Ill.) and incubated for 3 (J774.16) or 5 (A549) days before use. After cell differentiation to a confluence of 70 to 80%, the culture media was replaced with fresh media containing the different AMPS at 64 μg/ml or at toxic dose (320 μg/ml) or controls (media only for negative control or 50 μM NaN3 for positive control). Similarly, AMPS or 1% Triton 100-X as positive control or media only (negative control) was each added to separate wells and allowed to be absorbed into agar at room temperature. All experiments were incubated for 24 hr at 37° C., 5% CO2. All experiments were done in duplicates. Cytotoxicity for J774.16 or A549 cells was monitored using Trypan Blue exclusion assay and the ratio of dead to viable cells was recorded. For sRBCs, the presence of cell lysis after 24 hr of incubation at 37° C. following treatment indicated cytotoxicity.

macrophage J774.16 cells = assay: Peptide cytotoxicity, Trypan Blue exclusion assay; assay type: cell-based, mouse; settings: for cell death: 170 μM peptide, negative control 10%
Description: as §1

[2] = tested on: M. tuberculosis strain MC26230
[3] = 170 μM peptide concentration, compared with the negative control

| Substance | MIC (M. tuberculosis MC26020) | cytotoxicity [1, 3] | cytotoxicity ([1]; milder than on J774.16 cells, concentration not restated (320 μg/mL in preceding sentence)) | cytotoxic concentration (320 μg/mL) relative to MIC against mycobacteria and streptococci (macrophage J774.16 cells) | cell death (macrophage J774.16 cells; 24 hr) | cytotoxicity (macrophage J774.16 cells; 320 μg/mL, 24 hr) | MIC [2] |
| --- | --- | --- | --- | --- | --- | --- | --- |
| ILSLRWRWKWWKK-NH2 [Peptide B1, ILSLRWRWKWWKK] | 32 µg/mL | – | – | – | – | – | – |
| ILSLRWRWWKWKK-NH2 [Peptide B3, ILSLRWRWWKWKK] | 8 µg/mL | Slight cytotoxicity | some degree of cytotoxicity | at least five times the MIC | 40% | moderate cytotoxicity | 64 µg/mL |
| ILSLRWWRKWWKK-NH2 [Peptide B2, ILSLRWWRKWWKK] | 32 µg/mL | Slight cytotoxicity | – | – | 20% | – | – |
| IRKLKSWKWLRWL-NH2 [Peptide B4, IRKLKSWKWLRWL] | 32 µg/mL | – | – | – | – | – | – |
